Reference: patent US20080269326A1, “Use of 1-Phenyl-3-Dimethylamino-propane Compounds for Treating Neuropathic Pain” (GRUENENTHAL GmbH, priority 2007, published 2008)

What was measured:
Format in all cases: in vivo, rat
[1] = test system: cold allodynia in Bennett animals; assay: Bennett model (chronic constriction injury), cold allodynia on 4° C. cold metal plate
Protocol: The effectiveness in treating neuropathic pain was investigated in the Bennett model (chronic constriction injury; Bennett and Xie, 1988, Pain 33: 87-107).
Sprague-Dawley rats weighing 140-160 g are provided with four loose ligatures of the right sciatic nerve under nembutal narcosis. The animals develop a hypersensitivity in the paw innervated by the damaged nerve, which after a healing phase of one week is quantified over about four weeks by means of a 4° C. cold metal plate (cold allodynia). The animals are observed for two minutes on this plate and the number of retractive movements of the damaged paw are measured. The effect of the substance is determined with reference to the base value before application of the substance, at four different times over a period of one hour(15, 30, 45 and 60 minutes after application) and the resultant area under the curve (AUD) as well as the inhibition of cold allodynia at the individual measurement points is expressed in percent effect with reference to the vehicle control (AUD) and to the initial value (individual measurement points). The cohort size is n=10.

[2] = test system: mechanical hyperalgesia in diabetic animals; assay: Streptozotocin diabetic neuropathy, mechanical hyperalgesia (Randall and Sellito); conditions: diabetic rats
Protocol: Male Sprague-Dawley rats weighing 160-180 g received an intra-peritoneal injection of streptozotocin (75 mg/kg body weight) dissolved in pH 4.6 citrate buffer. One week later diabetic animals were identified by measuring the blood glucose level, and those with a blood glucose level of ≧17 mM were included in the study. Three and four weeks after administration of streptozotocin the mechanical reaction threshold was measured in diabetic animals by the method of Randall and Sellito (1957 Arch. Int. Pharmacody. […]:409-419) before (pre-test) and at various times after administration of the test substance or vehicle (post-test). […] The maximum pressure exerted on the rear paw was 250 g. The end point of the mechanical reaction threshold in grams was determined based on the reaction of the animal (withdrawal of the rear paw, vocalisation or evasive reaction). The size of the cohort in the individual dose stages was n=10. The maximum possible response in percent (% MPE=% of maximum possible effect) was calculated according to the formula:
% MPE=(post-test−pre-test)/(250−pre-test)×100.
ED50 values (dose at which 50% maximum inhibition occurred) were determined by regression analysis from the % MPE values at the time of the maximum effect.

[3] = test system: mononeuropathic pain, withdrawal threshold of rear paw; assay: Mononeuropathy (spinal nerve ligature, SNL), withdrawal threshold by electronic von Frey filament
Protocol: Male Sprague Dawley rats (140-180g, Janvier, France) are kept under standard conditions (06.00-18.00 hours light, 18.00-06.00 hours darkness; 20°-24° C. room temperature; 35-70% relative atmospheric humidity, tap water and standard feed as desired) in groups of five animals in Macrolon type 4 cages.
Under pentobarbital narcosis (Narcoren, 60 mg/kg i.p., Merial GmbH, Germany) the spinal nerves L5 and L6 are tightly bound unilaterally on the left side with a silk thread (NC silk black, USP 5/0, metric 1, Braun Melsungen A G, Germany) (Kim and Chung, Pain 1992; 50: 355-63). After the operation the animals were allowed to recover for one week and within this time developed a hypersensitivity on the ipsilateral (left) paw. The hypersensitivity to a pressure stimulus can be measured using an electronic von Frey filament (Somedic, Sweden). For this purpose the animals are placed on a grating under a hood. After the animals became accustomed to the surroundings the damaged (ipsilateral, left) and undamaged (contralateral, right) rear paws are subjected to increasing pressure on the underside of the paw until the animal tries to retract the corresponding paw. The median value of five tests defines the withdrawal threshold of a test time point. The animals are tested on both rear paws before and at various times after administration of the substance or vehicle. For each animal the difference between the test value and pre-test for the ipsilateral and contralateral side is determined, and the result is expressed as the mean value (MW) and standard error of the mean (SEM) for the groups consisting in each case of 10 animals. The difference between the mean difference values of the ipsilateral and contralateral side defines the hypersensitivity induced by mononeuropathy. The statistical significance of the effect of a substance is determined on the basis of the difference values compared to the vehicle group for the ipsilateral and contralateral side, by means of bifactorial variance analysis and post hoc analysis according to Bonferroni.

CC[C@@H](c1cccc(O)c1)[C@@H](C)CN(C)C [Compound 9, (1R,2R)-3-(3-dimethylamino-1-ethyl-2-methylpropyl)-phenol]
Cold allodynia (% AUD) Naïve animals ([1]; 10 mg/kg i.p.): 49.3 % AUD | Cold allodynia (% AUD) Naïve animals ([1]; 21.5 mg/kg i.p.): 53.4 % AUD | ED50 ([1]; Rattus norvegicus, ip, rats): 13 mg/kg | ED50 ([2]; Rattus norvegicus, ip, i.p., read-out: Mechanical hyperalgesia ED50 (95% confidence region)): 8.9 mg/kg | Mechanical hyperalgesia Maximum effect in % MPE ([2]; 31.6 mg/kg i.p.): 100% (31.6 mg/kg) % MPE | maximum effect compared among the tested compounds ([2]; i.p.): highest maximum effect | withdrawal threshold, test value - pre-test value (MW) ([3]; 0.1 mg/kg i.v., Contra, 30 min): 0.06 g | withdrawal threshold, test value - pre-test value (MW) ([3]; 0.1 mg/kg i.v., Contra, 60 min): -3.13 g | withdrawal threshold, test value - pre-test value (MW) ([3]; 0.1 mg/kg i.v., Contra, 180 min): -4.30 g | withdrawal threshold, test value - pre-test value (MW) ([3]; 0.1 mg/kg i.v., Ipsi, 30 min): 1.74 g | withdrawal threshold, test value - pre-test value (MW) ([3]; 0.1 mg/kg i.v., Ipsi, 60 min): -0.59 g | withdrawal threshold, test value - pre-test value (MW) ([3]; 0.1 mg/kg i.v., Ipsi, 180 min): -2.24 g | withdrawal threshold, test value - pre-test value (MW) ([3]; 0.316 mg/kg i.v., Contra, 30 min): 0.39 g | withdrawal threshold, test value - pre-test value (MW) ([3]; 0.316 mg/kg i.v., Contra, 60 min): ta −6.20 g | withdrawal threshold, test value - pre-test value (MW) ([3]; 0.316 mg/kg i.v., Contra, 180 min): 2.21 g | withdrawal threshold, test value - pre-test value (MW) ([3]; 0.316 mg/kg i.v., Ipsi, 30 min): 5.78 g | withdrawal threshold, test value - pre-test value (MW) ([3]; 0.316 mg/kg i.v., Ipsi, 60 min): 2.21 g | withdrawal threshold, test value - pre-test value (MW) ([3]; 0.316 mg/kg i.v., Ipsi, 180 min): 1.68 g | withdrawal threshold, test value - pre-test value (MW) ([3]; 1 mg/kg i.v., Contra, 30 min): 2.90 g | withdrawal threshold, test value - pre-test value (MW) ([3]; 1 mg/kg i.v., Contra, 60 min): 2.45 g | withdrawal threshold, test value - pre-test value (MW) ([3]; 1 mg/kg i.v., Contra, 180 min): -6.65 g | withdrawal threshold, test value - pre-test value (MW) ([3]; 1 mg/kg i.v., Ipsi, 30 min): 12.86 g | withdrawal threshold, test value - pre-test value (MW) ([3]; 1 mg/kg i.v., Ipsi, 60 min): 7.09 g | withdrawal threshold, test value - pre-test value (MW) ([3]; 1 mg/kg i.v., Ipsi, 180 min): 2.01 g | withdrawal threshold, test value - pre-test value (MW) ([3]; 3.16 mg/kg i.v., Contra, 30 min): 8.02 g | withdrawal threshold, test value - pre-test value (MW) ([3]; 3.16 mg/kg i.v., Contra, 60 min): 2.85 g | withdrawal threshold, test value - pre-test value (MW) ([3]; 3.16 mg/kg i.v., Contra, 180 min): -0.34 g | withdrawal threshold, test value - pre-test value (MW) ([3]; 3.16 mg/kg i.v., Ipsi, 30 min): 18.43 g | withdrawal threshold, test value - pre-test value (MW) ([3]; 3.16 mg/kg i.v., Ipsi, 60 min): 20.32 g | withdrawal threshold, test value - pre-test value (MW) ([3]; 3.16 mg/kg i.v., Ipsi, 180 min): 11.06 g | withdrawal threshold, test value - pre-test value (MW) ([3]; 10 mg/kg i.v., Contra, 30 min): 31.85 g | withdrawal threshold, test value - pre-test value (MW) ([3]; 10 mg/kg i.v., Contra, 60 min): 10.62 g | withdrawal threshold, test value - pre-test value (MW) ([3]; 10 mg/kg i.v., Contra, 180 min): 4.51 g | withdrawal threshold, test value - pre-test value (MW) ([3]; 10 mg/kg i.v., Ipsi, 60 min): [drawing 7] 19.47 g | withdrawal threshold, test value - pre-test value (MW) ([3]; 10 mg/kg i.v., Ipsi, 180 min): 13.65 g | inhibition of the mononeuropathically-induced withdrawal threshold reduction ([3]; 10 mg/kg i.v., after 30 minutes, ipsilateral): full inhibition | statistically significant minimal effective dose ([3]; i.v., contralateral withdrawal threshold): 10 mg/kg | statistically significant minimal effective dose ([3]; i.v., ipsilateral rear paw, mononeuropathic rats): 1 mg/kg | dosage at which complete inhibition is reached ([3]; i.v., mononeuropathic pain model): 10 mg/kg
